What was measured:
human DGKα = human DGKα (Homo sapiens (Human), UniProt P23743); assay: DGKα Biochemical Activity Assay (ADP-Glo); conditions: recombinant DGKα 1 nM, 100 μM ATP, 18:1 DAG/POPS/octylglucoside micelles, 1 hour at 25° C.; geometric mean; read-out: HTBS DGKa 1X ATP KM IC50
How it was run: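 Recombinant DGKα (1 nM final) was preincubated with compound for 15 min, then reacted for 1 h at 25 °C with 100 μM ATP and octylglucoside micelles of 0.85 mM 18:1 DAG and 6.75 mM POPS in pH 7.2 MOPS with 5 mM MgCl2. ADP formed was read by ADP-Glo luminescence. IC50 came from four-parameter fits normalized to DMSO and 50 μM CU3, and values were geometric means.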

[1] = test system: Jurkat NFκB-luciferase cells; assay: Jurkat NFκB-Luciferase Assay; type: cell-based; conditions: Homo sapiens; Jurkat NFκB-luciferase cells activated with anti-CD3 antibody (OKT3), 2.5 hrs at 37° C.; geometric mean; read-out: DGK NFKb Luciferase EC50
How it was run: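 Jurkat NFκB-luciferase reporter cells stimulated on plate-bound anti-CD3 (5 ug/ml coating) with compound, 2.5 hrs at 37° C then 30 min at 25° C; luminescence read with One-Glo Ex. Normalized to DMSO (basal) and 1 micromolar compound (maximum) controls; EC50 from four-parameter fit, geometric mean across experiments.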

Sequence of human DGKα (P23743 whole entry): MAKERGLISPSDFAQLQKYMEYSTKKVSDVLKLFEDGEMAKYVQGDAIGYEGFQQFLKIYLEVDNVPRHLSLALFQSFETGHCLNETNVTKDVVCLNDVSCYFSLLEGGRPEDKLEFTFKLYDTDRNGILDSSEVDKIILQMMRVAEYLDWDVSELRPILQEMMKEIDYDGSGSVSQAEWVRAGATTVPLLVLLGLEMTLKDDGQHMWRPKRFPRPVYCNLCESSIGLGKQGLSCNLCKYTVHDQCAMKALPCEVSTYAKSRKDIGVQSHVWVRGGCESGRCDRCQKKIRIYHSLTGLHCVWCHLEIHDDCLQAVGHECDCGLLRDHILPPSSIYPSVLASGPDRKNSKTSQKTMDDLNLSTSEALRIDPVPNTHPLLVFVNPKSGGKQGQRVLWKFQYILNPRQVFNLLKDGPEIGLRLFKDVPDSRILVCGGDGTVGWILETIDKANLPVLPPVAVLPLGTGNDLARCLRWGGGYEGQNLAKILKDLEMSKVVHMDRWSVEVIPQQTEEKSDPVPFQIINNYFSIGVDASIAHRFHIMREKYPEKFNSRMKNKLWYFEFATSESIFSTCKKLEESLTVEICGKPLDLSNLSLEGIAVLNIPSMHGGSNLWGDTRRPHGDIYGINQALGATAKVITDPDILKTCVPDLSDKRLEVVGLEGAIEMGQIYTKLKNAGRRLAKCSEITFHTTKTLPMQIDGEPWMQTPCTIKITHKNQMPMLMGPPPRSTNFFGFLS

| Compound | IC50 (human DGKα) | EC50 [1] |
| --- | --- | --- |
| CC(C)(O)C#Cc1cc(F)cc(N(CC(F)F)c2nc3nncn3c3cncc(F)c23)c1 [Example 42, 4-(3-((2,2-difluoroethyl)(6-fluoropyrido[4,3-e][1,2,4]triazolo[4,3-a]pyrimidin-5-yl)amino)-5-fluorophenyl)-2-methylbut-3-yn-2-ol] | 35.4 nM | 43 nM |
| CN(c1cc(F)cc(C#CC2(C(F)(F)F)CC2)c1)c1nc2cncn2c2cc(Cl)ccc12 [Example 2, 8-chloro-N-[3-fluoro-5-[2-[1-(trifluoromethyl)cyclopropyl]ethynyl]phenyl]-N-methyl-imidazo[1,5-a]quinazolin-5-amine] | 2310 nM | 5.11 nM |
| Cc1ccc2c(N(C)c3cccc(-c4ccc(C(F)F)cc4)c3)nc3nncn3c2n1 [Example 124, N-(4′-(difluoromethyl)-[1,1′-biphenyl]-3-yl)-N,2-dimethylpyrido[3,2-e][1,2,4]triazolo[4,3-a]pyrimidin-5-amine] | 12.3 nM | 7.45 nM |
| CN(c1cccc(-c2ccc(C3CC3)cc2)c1)c1nc2nncn2c2cnccc12 [Example 61, N-[3-(4-cyclopropylphenyl)phenyl]-N-methyl-2,4,5,7,12-pentazatricyclo[7.4.0.02,6]trideca-1(13),3,5,7,9,11-hexaen-8-amine] | 22.8 nM | 0.543 nM |
| Cc1nnc2nc(N3CCCCc4c(Br)cccc43)c3c(F)cncc3n12 [Example 69, 5-(6-bromo-2,3,4,5-tetrahydro-1H-benzo[b]azepin-1-yl)-6-fluoro-1-methylpyrido[4,3-e][1,2,4]triazolo[4,3-a]pyrimidine] | 220 nM | 13.9 nM |
| CN(c1cccc(C#CC2(C(F)(F)F)CC2)c1)c1nc2nncn2c2nc(N)ccc12 [Example 121, N5-methyl-N5-(3-((1-(trifluoromethyl)cyclopropyl)ethynyl)phenyl)pyrido[3,2-e][1,2,4]triazolo[4,3-a]pyrimidine-2,5-diamine] | 46.2 nM | 6.93 nM |
| CC1(C#Cc2cccc3c2CCCN3c2nc3nncn3c3cccnc23)CC1 [Example 24, 8-[5-[2-(1-methylcyclopropyl)ethynyl]-3,4-dihydro-2H-quinolin-1-yl]-2,4,5,7,10-pentazatricyclo[7.4.0.02,6]trideca-1(13),3,5,7,9,11-hexaene] | 17 nM | 2.77 nM |
| Cc1nnc2nc(N(CC(F)F)c3ccnc(C#CC4(C(F)(F)F)CC4)c3)c3c(F)cncc3n12 [Example 53, N-(2,2-difluoroethyl)-6-fluoro-1-methyl-N-(2-((1-(trifluoromethyl)cyclopropyl)ethynyl)pyridin-4-yl)pyrido[4,3-e][1,2,4]triazolo[4,3-a]pyrimidin-5-amine] | 16 nM | 12.1 nM |
| CN(c1cc(F)cc(C#CC2(C(F)(F)F)CC2)c1)c1nc2nncn2c2ncc(F)cc12 [Example 156, 3-fluoro-N-(3-fluoro-5-((1-(trifluoromethyl)cyclopropyl)ethynyl)phenyl)-N-methylpyrido[3,2-e][1,2,4]triazolo[4,3-a]pyrimidin-5-amine] | 10.7 nM | 2.69 nM |
| Cc1nnc2nc(N3CCCOc4c(C#CC(C)(C)C(F)(F)F)cccc43)c3c(F)cncc3n12 [Example 70, 5-(6-fluoro-1-methylpyrido[4,3-e][1,2,4]triazolo[4,3-a]pyrimidin-5-yl)-9-(4,4,4-trifluoro-3,3-dimethylbut-1-yn-1-yl)-2,3,4,5-tetrahydrobenzo[b][1,4]oxazepine] | 6.44 nM | 2.62 nM |
| CN(c1cccc(-c2ccc(C3CC3)cc2)c1)c1nc2nncn2c2ncc(F)cc12 [Example 155, N-(4′-cyclopropyl-[1,1′-biphenyl]-3-yl)-3-fluoro-N-methylpyrido[3,2-e][1,2,4]triazolo[4,3-a]pyrimidin-5-amine] | 17.2 nM | 0.707 nM |
| Cc1nnc2nc(N3CCCc4c(C#CC(C)(C)C(F)(F)F)cncc43)c3c(F)cncc3n12 [Example 36, 6-fluoro-1-methyl-5-(5-(4,4,4-trifluoro-3,3-dimethylbut-1-yn-1-yl)-3,4-dihydro-1,7-naphthyridin-1(2H)-yl)pyrido[4,3-e][1,2,4]triazolo[4,3-a]pyrimidine] | 40.4 nM | 8.86 nM |
| Cc1nnc2nc(N3CCCc4c(C#CC5(C(C)(F)F)CC5)cncc43)c3c(F)cncc3n12 [Example 34, 5-(5-((1-(1,1-difluoroethyl)cyclopropyl)ethynyl)-3,4-dihydro-1,7-naphthyridin-1(2H)-yl)-6-fluoro-1-methylpyrido[4,3-e][1,2,4]triazolo[4,3-a]pyrimidine] | 42.8 nM | 3.34 nM |

Now from value to compound:

| IC50 (human DGKα) | EC50 [1] | Compound |
| --- | --- | --- |
| 20.7 nM | 3.54 nM | CN(c1cccc(C#CC2(C(F)(F)F)CC2)c1)c1nc2nncn2c2ncc(F)cc12 [Example 154, 3-fluoro-N-methyl-N-(3-((1-(trifluoromethyl)cyclopropyl)ethynyl)phenyl)pyrido[3,2-e][1,2,4]triazolo[4,3-a]pyrimidin-5-amine] |
| 29.4 nM | 45.2 nM | CN(c1cccc(C#CC(C)(C)O)c1)c1nc2nncn2c2ncc(F)cc12 [Example 153] |
| 12.6 nM | 6.04 nM | Cc1nnc2nc(N(CC(F)F)c3cc(F)cc(C#CC4(C)CC4)c3)c3c(F)cncc3n12 [Example 49, N-(2,2-difluoroethyl)-6-fluoro-N-(3-fluoro-5-((1-methylcyclopropyl)ethynyl)phenyl)-1-methylpyrido[4,3-e][1,2,4]triazolo[4,3-a]pyrimidin-5-amine] |
| 40.9 nM | 3.34 nM | CC(C)(C#Cc1cc(F)cc(N(CC(F)F)c2nc3nncn3c3cncc(F)c23)c1)C(F)(F)F [Example 46, N-(2,2-difluoroethyl)-6-fluoro-N-(3-fluoro-5-(4,4,4-trifluoro-3,3-dimethylbut-1-yn-1-yl)phenyl)pyrido[4,3-e][1,2,4]triazolo[4,3-a]pyrimidin-5-amine] |
| 1.38 nM | 0.051 nM | Cc1nnc2nc(N3CCCc4c(C#CC5(C)CC5)cccc43)c3ccc(C(F)(F)F)nc3n12 [Example 143, 9-methyl-5-(5-((1-methylcyclopropyl)ethynyl)-3,4-dihydroquinolin-1(2H)-yl)-2-(trifluoromethyl)pyrido[3,2-e][1,2,4]triazolo[4,3-a]pyrimidine] |
| 6.56 nM | 4.35 nM | Cc1nnc2nc(N3CCOCc4c(C#CC(C)(C)C#N)cccc43)c3ccc(C(F)(F)F)nc3n12 [Example 138, 2,2-dimethyl-4-(1-(9-methyl-2 (trifluoromethyl)pyrido[3,2-e][1,2,4]triazolo[4,3-a]pyrimidin-5-yl)-1,2,3,5-tetrahydrobenzo[e][1,4]oxazepin-6-yl)but-3-ynenitrile] |
| 6.83 nM | 6.11 nM | FCC1(C#Cc2cccc3c2CCCN3c2nc3nncn3c3cccnc23)CC1 [Example 27, 5-(5-((1-(fluoromethyl)cyclopropyl)ethynyl)-3,4-dihydroquinolin-1(2H)-yl)pyrido[2,3-e][1,2,4]triazolo[4,3-a]pyrimidine] |
| 42.7 nM | 4.15 nM | Cc1ccc2c(N(C)c3cccc(C#CC(C)(C)C)c3)nc3nncn3c2n1 [Example 122, N-(3-(3,3-dimethylbut-1-yn-1-yl)phenyl)-N,2-dimethylpyrido[3,2-e][1,2,4]triazolo[4,3-a]pyrimidin-5-amine] |
| 20.1 nM | 5.97 nM | Cc1nnc2nc(N3CCCc4c(C#CC5(C(F)F)CC5)cncc43)c3c(F)cncc3n12 [Example 35, 5-(5-((1-(difluoromethyl)cyclopropyl)ethynyl)-3,4-dihydro-1,7-naphthyridin-1(2H)-yl)-6-fluoro-1-methylpyrido[4,3-e][1,2,4]triazolo[4,3-a]pyrimidine] |
| 107 nM | 2.52 nM | CN(c1cc(F)cc(C#CC(C)(C)C(F)F)c1)c1nc2nnnn2c2ccc(F)cc12 [Example 12] |
| 12.3 nM | 8.3 nM | Cc1nnc2nc(N(C)c3cccc(-c4ccc(C(F)F)cc4)c3)c3ccc(N)nc3n12 [Example 134, N5-(4′-(difluoromethyl)-[1,1′-biphenyl]-3-yl)-N5,9-dimethylpyrido[3,2-e][1,2,4]triazolo[4,3-a]pyrimidine-2,5-diamine] |
| 73.9 nM | 12.5 nM | Cc1nnc2nc(N3CCCc4c(C#CC(C)(C)C(F)(F)F)cccc43)c3ncccc3n12 [Example 21, 3-methyl-8-[5-(4,4,4-trifluoro-3,3-dimethyl-but-1-ynyl)-3,4-dihydro-2H-quinolin-1-yl]-2,4,5,7,10-pentazatricyclo[7.4.0.02,6]trideca-1(13),3,5,7,9,11-hexaene] |
| 24.8 nM | 13.2 nM | Cc1nnc2nc(N3CCCc4c3ccnc4C#CC(C)(C)C(F)(F)F)c3c(F)cncc3n12 [Example 30, 6-fluoro-1-methyl-5-(5-(4,4,4-trifluoro-3,3-dimethylbut-1-yn-1-yl)-3,4-dihydro-1,6-naphthyridin-1(2H)-yl)pyrido[4,3-e][1,2,4]triazolo[4,3-a]pyrimidine] |
| 32.7 nM | 1.93 nM | CC(C)(C)C#Cc1cc(F)cc(N(CC(F)F)c2nc3nncn3c3cncc(F)c23)c1 [Example 44, N-(2,2-difluoroethyl)-N-(3-(3,3-dimethylbut-1-yn-1-yl)-5-fluorophenyl)-6-fluoropyrido[4,3-e][1,2,4]triazolo[4,3-a]pyrimidin-5-amine] |

Source: patent publication US11926628B2 (Gilead Sciences, Inc., priority 2021, dated 2024)
